The results in this text go back to ChEMBL document CHEMBL4622861, “Synthesis and biological evaluation of 6-nitro-1,2,4-triazoloazines containing polyphenol fragments possessing antioxidant and antiviral activity” (Bioorg Med Chem Lett, 2020).

Active and inactive are the calls of the source. No cut-off for these calls is given here. A value given as a limit tells only on which side of the number the result lay.

Series [1] concerns M2 proton channel of Influenza A virus. Briefly: Selectivity index, ratio of CC50 for MDCK cells to IC50 for M2 proton channel in Influenza A virus (A/Puerto Rico/8/34(H1N1) ) infected in MDCK cells assessed as inhibition of viral infection. Format: toxicity, cell-based. The settings on record: dog, read-out: Ratio CC50/IC50.
The nature of series [2]: Inhibition of M2 proton channel in Influenza A virus (A/Puerto Rico/8/34(H1N1)) infected in MDCK cells assessed as inhibition of viral infection. It counts as cell-based, Influenza A virus (A/Puerto Rico/8/1934(H1N1)).
Series [3] can be described thus: Cytotoxicity against MDCK cells. It counts as cell-based, Canis lupus familiaris. As to conditions: dog.
Series [4] deals with Influenza A virus. The experiment in a line: Antiviral activity against Influenza A virus (A/Puerto Rico/8/34(H1N1)) infected in MDCK cells assessed as reduction in viral titer at 50 uM measured after 4 hrs post-infection. It counts as functional, organism-based. As to conditions: A/Puerto Rico/8/1934(H1N1).
Series [5] relates to Influenza A virus. Briefly: Antiviral activity against Influenza A virus (A/Puerto Rico/8/34(H1N1)) infected in MDCK cells assessed as reduction in viral titer at 100 uM measured at 0 to 8 hrs post-infection. Format: functional, organism-based. As to conditions: A/Puerto Rico/8/1934(H1N1).
Series [6] has as its target Hemagglutinin (Influenza A virus (A/Puerto Rico/8/1934(H1N1))) (UniProt P03452). Briefly: Inhibition of Hemagglutinin in Influenza A virus (A/Puerto Rico/8/34(H1N1)) assessed as reduction in virus-induced agglutination of chicken erythrocytes at 100 uM.
The test system of series [7] is Influenza A virus. Briefly: Antiviral activity against Influenza A virus (A/Puerto Rico/8/34(H1N1)) infected in MDCK cells assessed as reduction in viral titer at 100 uM measured at 0 to 2 hrs post-infection. It counts as functional, organism-based. As to conditions: A/Puerto Rico/8/1934(H1N1).
Series [8] is described as follows: Antioxidant activity in K3[Fe(CN)6]/K4[Fe(CN)6] system by potentiometric method. It counts as functional.
Series [9] concerns Influenza A virus. The experiment in a line: Antiviral activity against Influenza A virus (A/Puerto Rico/8/34(H1N1)) infected in MDCK cells assessed as reduction in viral titer at 50 uM measured at 0 to 2 hrs post-infection. It counts as functional, organism-based. As to conditions: A/Puerto Rico/8/1934(H1N1).
The target of series [10] is Hemagglutinin (Influenza A virus (A/Puerto Rico/8/1934(H1N1))) (UniProt P03452). Briefly: Inhibition of Hemagglutinin in Influenza A virus (A/Puerto Rico/8/34(H1N1)) assessed as reduction in virus-induced agglutination of chicken erythrocytes at 50 uM.
Sequence of Hemagglutinin (Influenza A virus (A/Puerto Rico/8/1934(H1N1))) (P03452 whole entry): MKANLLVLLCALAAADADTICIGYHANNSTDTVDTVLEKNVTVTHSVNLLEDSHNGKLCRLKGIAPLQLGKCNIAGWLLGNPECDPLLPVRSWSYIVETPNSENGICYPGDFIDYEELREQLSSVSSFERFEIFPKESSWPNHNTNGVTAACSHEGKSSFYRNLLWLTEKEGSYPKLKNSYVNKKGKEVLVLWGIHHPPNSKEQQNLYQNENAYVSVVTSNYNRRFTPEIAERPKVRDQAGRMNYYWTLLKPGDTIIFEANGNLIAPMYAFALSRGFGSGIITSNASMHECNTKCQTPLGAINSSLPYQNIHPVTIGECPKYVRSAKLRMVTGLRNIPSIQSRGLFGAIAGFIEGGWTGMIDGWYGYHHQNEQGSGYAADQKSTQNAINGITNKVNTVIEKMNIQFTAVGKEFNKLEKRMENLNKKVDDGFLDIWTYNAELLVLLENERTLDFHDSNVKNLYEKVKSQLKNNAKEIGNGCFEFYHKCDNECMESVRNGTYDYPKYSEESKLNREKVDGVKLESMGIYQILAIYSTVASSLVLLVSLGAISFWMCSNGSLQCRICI
The test system of series [11] is Influenza A virus. The experiment in a line: Antiviral activity against Influenza A virus (A/Puerto Rico/8/34(H1N1)) infected in MDCK cells assessed as reduction in viral titer at 100 uM measured after 4 hrs post-infection. As to conditions: A/Puerto Rico/8/1934(H1N1). Format: functional, organism-based.
Series [12] deals with Influenza A virus. The experiment in a line: Antiviral activity against Influenza A virus (A/Puerto Rico/8/34(H1N1)) infected in MDCK cells assessed as reduction in viral titer at 50 uM measured at 0 to 8 hrs post-infection. It counts as functional, organism-based. The settings on record: A/Puerto Rico/8/1934(H1N1).

The IC50 is the concentration at which inhibition is half-maximal. Usually CC50 stands for the concentration at which the toxic effect on the cells reaches its halfway point. Low values mean greater toxicity to the cells, high ones lower toxicity to the cells.

As for `CC(N)C12CC3CC(CC(C3)C1)C2` (configuration not stated) [RIMANTADINE], the selectivity ratio in [1] was greater than 667. Also, the concentration for half-maximal inhibition (IC50) in series [2] was 0.3 µM. In series [3], the half-maximal cytotoxic concentration (CC50) is greater than 200 µM.

Turning to `O=[N+]([O-])C1=CNc2nc(-c3ccco3)nn2C1c1c(O)cc(O)cc1O` (configuration not stated), the selectivity ratio in [1] is 4. In addition, the IC50 in series [2] stood at 70 µM. This compound also registered a CC50 in [3] of 280 µM.

As to `O=[N+]([O-])C1=CNc2nc(-c3ccco3)nn2C1`, the selectivity ratio in series [1] stood at 13. Moreover, in series [2], the IC50 came to 9 µM. The compound further yielded a CC50 in series [3] of 108 µM.

Turning to `O=[N+]([O-])C1=NNc2ncnn2C1c1c(O)cc(O)cc1O` (configuration not stated), the selectivity ratio in series [1] was found to be 5. Besides, in series [2], the IC50 was found to be 26 µM. Besides, the CC50 in [3] amounted to 119 µM.

On to `O=[N+]([O-])C1=CNc2ncnn2C1c1ccc(O)c(O)c1O` (configuration not stated), for which the selectivity ratio in series [1] was 1. The IC50 in series [2] stood at 595 µM. Moreover, in [3], the CC50 was determined as 405 µM.

Regarding `O=[N+]([O-])C1=CNc2ncnn2C1c1c(O)cc(O)cc1O` (configuration not stated), the result in the series on Influenza A virus [4], in the series with Influenza A virus [5] and in the series with Influenza A virus [7] was Active. The selectivity ratio in [1] is greater than 51. The inhibition result in series [6] was “Active”. Further, in series [2], the IC50 amounted to 20 µM. The compound also showed a CC50 in series [3] greater than 1030 µM.

`O=[N+]([O-])C1=CNc2ncnn2C1O` (configuration not stated): the selectivity ratio in series [1] came out at 4. Besides, in series [2], the IC50 worked out at 28 µM. This compound yielded a half-maximal cytotoxic concentration (CC50) in [3] of 123 µM.

Turning to `O=[N+]([O-])C1=NNc2nc(C(F)(F)F)nn2C1c1ccc(O)c(O)c1` (configuration not stated), the selectivity ratio in series [1] was found to be 2. Further, the IC50 in series [2] is greater than 120 µM. The compound further showed a CC50 in series [3] of 183 µM.

As to `O=[N+]([O-])C1=CNc2ncnn2C1c1ccc(O)cc1O` (configuration not stated), the selectivity ratio in [1] was greater than 7. In addition, the IC50 in series [2] amounted to 167 µM. Besides, the CC50 in [3] is greater than 1090 µM.

`O=[N+]([O-])C1=CNc2nc(-c3ccco3)nn2C1c1ccc(O)c(O)c1` (configuration not stated): in series [1], the selectivity ratio is greater than 12. The half-maximal inhibitory concentration (IC50) in series [2] turned out to be 101 µM. In series [3], this compound displayed a cytotoxic concentration (CC50) greater than 1200 µM.

As to `O=[N+]([O-])C1=NNc2nc(C(F)(F)F)nn2C1c1c(O)cc(O)cc1O` (configuration not stated), the selectivity ratio in [1] amounted to 9. In series [2], the IC50 was determined as 27 µM. The same compound yielded a CC50 in series [3] of 252 µM.

Take `CSc1nc2n(n1)C(c1ccc(O)cc1O)C([N+](=O)[O-])=NN2` (configuration not stated): the outcome in series [8] was inactive. For the same compound, the selectivity ratio in series [1] worked out at 11. Moreover, the half-maximal inhibitory concentration (IC50) in series [2] turned out to be 18 µM. In addition, the CC50 in [3] was 201 µM.

In the case of `O=[N+]([O-])C1=CNc2nc(C(F)(F)F)nn2C1c1ccc(O)c(O)c1` (configuration not stated), the selectivity ratio in series [1] was determined as 57. In addition, the 50% inhibitory concentration (IC50) in [2] amounted to 21 µM. The compound further yielded a 50% cytotoxic concentration (CC50) in series [3] of 1200 µM.

Turning to `O=[N+]([O-])C1=CNc2nc(-c3ccco3)nn2C1c1ccc(O)cc1O` (configuration not stated), in [1], the selectivity ratio stood at 14. Further, the IC50 in series [2] came out at 9 µM. This compound registered a CC50 in series [3] of 119 µM.

Take `O=[N+]([O-])C1=NNc2ncnn2C1c1ccc(O)c(O)c1` (configuration not stated): the selectivity ratio in series [1] stood at 2. For the same compound, in series [2], the IC50 amounted to 1090 µM. This compound also returned a CC50 in series [3] greater than 1640 µM.

Take `CSc1nc2n(n1)C(c1c(O)cc(O)cc1O)C([N+](=O)[O-])=NN2` (configuration not stated): in series [1], the selectivity ratio was 39. The IC50 in series [2] was determined as 23 µM. This compound returned a half-maximal cytotoxic concentration (CC50) in series [3] of 877 µM.

Consider `O=[N+]([O-])C1=CNc2nc(C(F)(F)F)nn2C1c1c(O)cc(O)cc1O` (configuration not stated), for which the selectivity ratio in series [1] was 32. Also, the IC50 in series [2] was 27 µM. For the same compound, it took 838 µM to reach half-maximal cytotoxicity in series [3] (CC50).

Take `CCC(CC)O[C@@H]1C=C(C(=O)O)C[C@H](N)[C@H]1NC(C)=O` [OSELTAMIVIR CARBOXYLATE]: in series [1], the selectivity ratio came to 5. Further, the IC50 in series [2] worked out at 13 µM. Moreover, the cytotoxic concentration (CC50) in series [3] came out at 66 µM.

Take `O=[N+]([O-])C1=NNc2nc(C(F)(F)F)nn2C1O` (configuration not stated): the selectivity ratio in [1] amounted to 4. Further, the IC50 in series [2] was 11 µM. Besides, in series [3], the CC50 stood at 40 µM.

As for `O=[N+]([O-])C1=NNc2ncnn2C1O` (configuration not stated), in series [1], the selectivity ratio amounted to 2. Also, the IC50 in series [2] was greater than 36 µM. The CC50 in [3] was 87 µM.

Consider `O=[N+]([O-])C1=NNc2nc(C(F)(F)F)nn2C1c1ccc(O)cc1O` (configuration not stated), for which the selectivity ratio in series [1] was found to be 3. Moreover, the IC50 in series [2] came out at 33 µM. This compound also showed a CC50 in [3] of 108 µM.

For the compound `O=[N+]([O-])C1=CNc2nc(C(F)(F)F)nn2C1c1ccc(O)cc1O` (configuration not stated), the selectivity ratio in [1] came to 43. For the same compound, the IC50 in series [2] turned out to be 6 µM. This compound also returned a CC50 in series [3] of 258 µM.

As for `CSc1nc2n(n1)C(c1ccc(O)c(O)c1O)C([N+](=O)[O-])=NN2` (configuration not stated), the outcome in series [8] was inactive. In series [1], the selectivity ratio is 8. For the same compound, the half-maximal inhibitory concentration (IC50) in series [2] was 26 µM. The same compound yielded a CC50 in [3] of 196 µM.

For the compound `O=[N+]([O-])C1=CNc2nc(-c3ccco3)nn2C1c1ccc(O)c(O)c1O` (configuration not stated), the selectivity ratio in series [1] was determined as 3. For the same compound, in series [2], the IC50 is 97 µM. The same compound returned a 50% cytotoxic concentration (CC50) in [3] of 317 µM.

Regarding `O=[N+]([O-])C1=CNc2ncnn2C1c1ccc(O)c(O)c1` (configuration not stated), the selectivity ratio in series [1] is 9. Moreover, the half-inhibitory concentration (IC50) in [2] amounted to 42 µM. For the same compound, the CC50 in series [3] was 368 µM.

On to `O=[N+]([O-])C1=CNc2nc(C(F)(F)F)nn2C1O` (configuration not stated), for which the selectivity ratio in series [1] was determined as 3. Moreover, the half-inhibitory concentration (IC50) in series [2] is 11 µM. This compound registered a CC50 in series [3] of 33 µM.

On to `CSc1nc2n(n1)C(c1ccc(O)c(O)c1)C([N+](=O)[O-])=NN2` (configuration not stated), for which the selectivity ratio in [1] is 8. Moreover, the result in the series with Influenza A virus [9], in the series on Influenza A virus [11] and in the series with Influenza A virus [12] was Active. Besides, the inhibition result in series [10] was “Active”. For the same compound, the IC50 in series [2] was 44 µM. The same compound showed a CC50 in [3] of 362 µM.

Consider `O=[N+]([O-])C1=NNc2ncnn2C1c1ccc(O)c(O)c1O` (configuration not stated), for which, in series [1], the selectivity ratio came out at 3. Besides, in series [2], the IC50 is 86 µM. The CC50 in series [3] came to 228 µM.

In the case of `CSc1nc2n(n1)C(O)C([N+](=O)[O-])=NN2` (configuration not stated), in series [1], the selectivity ratio is 7. Also, in series [2], the IC50 was determined as 15 µM. Further, it took 99 µM to reach half-maximal cytotoxicity in series [3] (CC50).

As for `O=[N+]([O-])C1=CNc2nc(C(F)(F)F)nn2C1c1ccc(O)c(O)c1O` (configuration not stated), in series [1], the selectivity ratio amounted to 8. The IC50 in [2] was 47 µM. The compound further gave a cytotoxic concentration (CC50) in series [3] of 373 µM.

For `O=[N+]([O-])C1=NNc2nc(C(F)(F)F)nn2C1c1ccc(O)c(O)c1O` (configuration not stated), the selectivity ratio in series [1] stood at 7. Also, the 50% inhibitory concentration (IC50) in series [2] amounted to 10 µM. The CC50 in series [3] was found to be 67 µM.

Take `O=[N+]([O-])C1=NNc2ncnn2C1c1ccc(O)cc1O` (configuration not stated): in series [8], the outcome was inactive. Moreover, the selectivity ratio in [1] amounted to 3. For the same compound, the IC50 in series [2] is 34 µM. The same compound had a CC50 in [3] of 90 µM.
